From US20120129875A1, “SUBSTITUTED QUINAZOLINES AS FUNGICIDES” (SYNGENTA CROP PROTECTION, LLC, priority 2009, published 2012) come the findings set out here.

Format in all cases: in vivo
The test system of one experiment is Plasmopara viticola. In words: Plasmopara viticola / grape / preventative (grape downy mildew). The following applies: grape seedlings cv. Gutedel, inoculated one day after application, vs untreated control, read-out: disease control. How it is done:
Plasmopara viticola/Grape/Preventative (Grape Downy Mildew)
5-week old grape seedlings cv. Gutedel are treated with the formulated test compound in a spray chamber. The test plants are inoculated by spraying a sporangia suspension on their lower leaf surface one day after application. The inoculated test plants are incubated at 22° C. and 100% rh in a greenhouse and the percentage leaf area covered by disease is assessed when an appropriate level of disease appears on untreated check plants (6-8 days after application).

The test system of the next experiment is Alternaria solani. In words: Alternaria solani / tomato / preventative (Alternaria on tomato). The note with it: tomato plants cv. Roter Gnom, inoculated two days after application, vs untreated control, read-out: disease control. The procedure: Alternaria solani/Tomato/Preventative (Alternaria on Tomato) 4-week old tomato plants cv. Roter Gnom are treated with the formulated test compound in a spray chamber. The test plants are inoculated by spraying them with a spore suspension two days after application. The inoculated test plants are incubated at 22/18° C. (day/night) and 95% rh in a greenhouse and the percentage leaf area covered by disease is assessed when an appropriate level of disease appears on untreated check plants (5-7 days after application).

Experiment [1] deals with Botryotinia fuckeliana (Botrytis cinerea). Briefly: Botryotinia fuckeliana (Botrytis cinerea) / tomato / preventative (Botrytis on tomato). The following applies: tomato plants cv. Roter Gnom, inoculated two days after application, vs untreated control, read-out: disease control. The procedure: Botryotinia fuckeliana (Botrytis cinerea)/Tomato/Preventative (Botrytis on Tomato) 4-week old tomato plants cv. Roter Gnom are treated with the formulated test compound in a spray chamber. The test plants are inoculated by spraying them with a spore suspension two days after application. The inoculated test plants are incubated at 20° C. and 95% rh in a greenhouse and the percentage leaf area covered by disease is assessed when an appropriate level of disease appears on untreated check plants (5-6 days after application).

For experiment [2], the system named is Pyrenophora teres (Helminthosporium teres). In words: Pyrenophora teres (Helminthosporium teres) / barley / preventative (net blotch on barley). The following applies: barley plants cv. Regina, inoculated 2 days after application, vs untreated control, read-out: disease control. The procedure: Pyrenophora teres (Helminthosporium teres)/Barley/Preventative (Net Blotch on Barley) 1-week old barley plants cv. Regina are treated with the formulated test compound in a spray chamber. The test plants are inoculated by spraying them with a spore suspension 2 days after application. The inoculated test plants are incubated at 20° C. and 95% rh and the percentage leaf area covered by disease is assessed when an appropriate level of disease appears on untreated check plants (5-7 days after application).

Experiment [3] has as its system Mycosphaerella arachidis (Cercospora arachidicola). Briefly: Mycosphaerella arachidis (Cercospora arachidicola) / peanut / preventative. The note with it: peanut plants cv. Georgia Green, inoculated one day after application, vs untreated control, read-out: disease control. The procedure:
Mycosphaerella arachidis (Cercospora arachidicola)/Peanut/Preventative 3-week old peanut plants cv. Georgia Green are treated with the formulated test compound in a spray chamber. The test plants are inoculated by spraying them with a spore suspension on their lower leaf surface one day after application. After an incubation period of 4 days under a plastic hood at 23° C. and 100% rh, the test plants are kept at 23° C./20° C. (day/night) and 70% rh in a greenhouse. The percentage leaf area covered by disease is assessed when an appropriate level of disease appears on untreated check plants (12-14 days after application).

`Cc1ccc(-c2ncc3ccccc3n2)nc1-c1ccccc1Br` [3/36]: the pest or weed control at 200 ppm (in the experiment with Plasmopara viticola; with Alternaria solani; in experiment [1]) was ≥ 80% each time.

On to `COc1ccc(F)cc1-c1cccc(-c2ncc3ccccc3n2)n1` [2/32], for which the pest or weed control at 200 ppm (in the experiment on Alternaria solani; in experiment [2]) was ≥ 80% each time.

As to `Cc1ccc(-c2ncc3ccccc3n2)nc1Sc1ccccc1Cl` [9/7], the pest or weed control at 200 ppm (in the experiment with Alternaria solani; in experiment [2]) was ≥ 80% in each case.

Take `Cc1ccccc1Oc1cccc(-c2ncc3ccccc3n2)n1` [4/22, 2-(6-o-tolyloxypyridin-2-yl)-quinazoline]: the pest or weed control at 200 ppm (with Plasmopara viticola; in the experiment with Alternaria solani; in experiment [2]) was ≥ 80% in each case.

For `Cc1ccc(-c2nc(-c3ncc4ccccc4n3)ccc2C)cc1` [3/69], the pest or weed control at 200 ppm (in the experiment with Plasmopara viticola; in experiment [1]; in experiment [2]) was ≥ 80% each time.

With `Cc1ccc(-c2ncc3ccccc3n2)nc1Cc1ccccc1Cl` [7/19], the pest or weed control at 200 ppm (with Plasmopara viticola; in experiment [1]) was ≥ 80% each time.

In the case of `Brc1ccccc1-c1cccc(-c2ncc3ccccc3n2)n1` [2/26], the pest or weed control at 200 ppm (in the experiment on Plasmopara viticola; in experiment [3]) was ≥ 80% in each case.

Take `Cc1cccc(-c2cccc(-c3ncc4ccccc4n3)n2)c1C` [2/9]: the pest or weed control at 200 ppm (in the experiment with Plasmopara viticola; with Alternaria solani; in experiment [2]) was ≥ 80% throughout.

Turning to `Cc1ccc(-c2ncc3ccccc3n2)nc1C#CC1CC1` [8/1], the pest or weed control at 200 ppm (in the experiment on Plasmopara viticola; in experiment [3]; in the experiment with Alternaria solani; in experiment [1]) was ≥ 80% in each case.

`Cc1ccc(-c2ncc3ccccc3n2)nc1Oc1cccc2ccccc12` [5/13]: the pest or weed control at 200 ppm (with Alternaria solani; in experiment [2]) was ≥ 80% throughout.

Take `Clc1ccccc1-c1cccc(-c2ncc3ccccc3n2)n1` [2/13]: the pest or weed control at 200 ppm (in the experiment on Plasmopara viticola; in experiment [3]; with Alternaria solani; in experiment [1]) was ≥ 80% each time.

Turning to `Cc1ccc(-c2ncc3ccccc3n2)nc1-c1cc(Cl)cc(Cl)c1` [3/73], the pest or weed control at 200 ppm (with Plasmopara viticola; in experiment [2]) was ≥ 80% throughout.

In the case of `Clc1ccccc1Oc1cccc(-c2ncc3ccccc3n2)n1` [4/23], the pest or weed control at 200 ppm in experiment [2] was ≥ 80%.

For the molecule `c1ccc(-c2cccc(-c3ncc4ccccc4n3)n2)cc1` [2/1], the pest or weed control at 200 ppm in experiment [3] and in experiment [1] was ≥ 80% each time.

For `c1cc(-c2ncc3ccccc3n2)nc(-c2cccc3ccccc23)c1` [2/6], the pest or weed control at 200 ppm (in the experiment on Plasmopara viticola; in experiment [3]; with Alternaria solani; in experiment [1]; in experiment [2]) was ≥ 80% in each case.

As to `CCc1ccccc1-c1cccc(-c2ncc3ccccc3n2)n1` [2/37], the pest or weed control at 200 ppm (with Plasmopara viticola; in experiment [3]; in the experiment with Alternaria solani; in experiment [1]) was ≥ 80% each time.

As to `CCc1ccccc1-c1nc(-c2ncc3ccccc3n2)ccc1C` [3/37], the pest or weed control at 200 ppm in the experiment on Plasmopara viticola and in the experiment on Alternaria solani was ≥ 80% each time.

In the case of `Cc1cccc(-c2cccc(-c3ncc4ccccc4n3)n2)c1` [2/3], the pest or weed control at 200 ppm (in the experiment on Plasmopara viticola; in the experiment with Alternaria solani; in experiment [2]) was ≥ 80% throughout.

Take `COc1ccccc1Oc1cccc(-c2ncc3ccccc3n2)n1` [4/15]: the pest or weed control at 200 ppm in experiment [2] was ≥ 80%.

`Cc1cc(C)cc(-c2nc(-c3ncc4ccccc4n3)ccc2C)c1` [3/86]: the pest or weed control at 200 ppm (with Plasmopara viticola; in the experiment with Alternaria solani; in experiment [2]) was ≥ 80% throughout.

Regarding `Fc1ccc(-c2cccc(-c3ncc4ccccc4n3)n2)c(F)c1` [2/28], the pest or weed control at 200 ppm (with Plasmopara viticola; with Alternaria solani; in experiment [2]) was ≥ 80% in each case.

With `Cc1ccc(-c2ncc3ccccc3n2)nc1Oc1ccc(F)cc1` [5/3], the pest or weed control at 200 ppm (in the experiment with Plasmopara viticola; in experiment [3]; in experiment [2]) was ≥ 80% throughout.

As to `Cc1ccc(-c2ncc3ccccc3n2)nc1Cc1ccc(Cl)cc1` [7/18], the pest or weed control at 200 ppm (in the experiment with Alternaria solani; in experiment [2]) was ≥ 80% each time.

As to `Cc1ccc2nc(-c3ccc(C)c(-c4ccccc4)n3)ncc2c1` [11/4], the pest or weed control at 200 ppm (in the experiment on Alternaria solani; in experiment [2]) was ≥ 80% each time.

With `Cc1ccc(F)cc1-c1nc(-c2ncc3ccccc3n2)ccc1C` [3/26], the pest or weed control at 200 ppm (in the experiment on Plasmopara viticola; in experiment [3]; in the experiment with Alternaria solani; in experiment [1]; in experiment [2]) was ≥ 80% throughout.

For the molecule `CSc1ccc(Oc2nc(-c3ncc4ccccc4n3)ccc2C)cc1` [5/4], the pest or weed control at 200 ppm in the experiment on Plasmopara viticola and with Alternaria solani was ≥ 80% each time.

As to `Cc1ccc(-c2nc(-c3ncc4ccccc4n3)ccc2C)cc1C` [3/11], the pest or weed control at 200 ppm in the experiment on Plasmopara viticola and in the experiment with Alternaria solani was ≥ 80% in each case.

Take `Cc1ccc(Oc2nc(-c3ncc4ccccc4n3)ccc2C)cc1` [5/17]: the pest or weed control at 200 ppm (in the experiment on Plasmopara viticola; in experiment [3]) was ≥ 80% throughout.

As for `COc1cccc(-c2nc(-c3ncc4ccccc4n3)ccc2C)c1` [3/84], the pest or weed control at 200 ppm (in the experiment with Plasmopara viticola; in the experiment on Alternaria solani; in experiment [2]) was ≥ 80% each time.

As to `COc1ccc(OC)c(-c2cccc(-c3ncc4ccccc4n3)n2)c1` [2/46], the pest or weed control at 200 ppm in the experiment on Plasmopara viticola and in the experiment on Alternaria solani was ≥ 80% in each case.

Consider `COc1ccc(-c2nc(-c3ncc4ccccc4n3)ccc2C)cc1` [3/70], for which the pest or weed control at 200 ppm (in the experiment with Alternaria solani; in experiment [2]) was ≥ 80% throughout.

As to `Fc1ccc(Sc2cccc(-c3ncc4ccccc4n3)n2)cc1` [9/4], the pest or weed control at 200 ppm (with Alternaria solani; in experiment [2]) was ≥ 80% throughout.

For `Cc1ccc(-c2ncc3ccccc3n2)nc1Sc1ccccc1` [9/6], the pest or weed control at 200 ppm (in the experiment with Alternaria solani; in experiment [2]) was ≥ 80% each time.

Regarding `COc1cccc(Sc2cccc(-c3ncc4ccccc4n3)n2)c1` [9/2], the pest or weed control at 200 ppm (in the experiment on Plasmopara viticola; in the experiment with Alternaria solani; in experiment [2]) was ≥ 80% in each case.

`COc1ccc(F)c(-c2nc(-c3ncc4ccccc4n3)ccc2C)c1` [3/56]: the pest or weed control at 200 ppm (in the experiment with Plasmopara viticola; in experiment [3]; with Alternaria solani) was ≥ 80% in each case.

In the case of `Cc1ccc(-c2ncc3cc(Cl)ccc3n2)nc1-c1ccccc1` [11/5], the pest or weed control at 200 ppm (in the experiment on Plasmopara viticola; in experiment [2]) was ≥ 80% each time.

For the molecule `Cc1ccc(-c2ncc3ccccc3n2)nc1-c1ccccc1Cl` [3/46], the pest or weed control at 200 ppm (in the experiment on Plasmopara viticola; in experiment [3]; in the experiment with Alternaria solani) was ≥ 80% each time.

As to `Clc1ccccc1Sc1cccc(-c2ncc3ccccc3n2)n1` [9/8], the pest or weed control at 200 ppm (in the experiment with Alternaria solani; in experiment [2]) was ≥ 80% throughout.

On to `COc1cc(F)ccc1-c1cccc(-c2ncc3ccccc3n2)n1` [2/90], for which the pest or weed control at 200 ppm (with Plasmopara viticola; with Alternaria solani; in experiment [2]) was ≥ 80% throughout.

`COc1ccc(Cl)cc1-c1nc(-c2ncc3ccccc3n2)ccc1C` [3/95]: the pest or weed control at 200 ppm (in the experiment on Plasmopara viticola; in the experiment on Alternaria solani; in experiment [2]) was ≥ 80% each time.
